Results taken from patent US9211310B2, “Use of a Chinese medicine composition in preparing medicaments for treating secondary prevention of myocardial infarction” (TASLY PHARMACEUTICAL GROUP CO., LTD, priority 2010, dated 2015).

Tested on: patients after acute myocardial infarction
Assay: Life quality, Seattle Angina Questionnaire (SAQ), same clinical trial
Format: in vivo, human
Conditions: PP
Source text: 3508 patients who were in accordance with the diagnostic standards of AMI for 28 days to 2 years and differentiated as Qi deficiency and blood stagnation syndrome by TCM were studied. 0.5 g Chinese medicine composition prepared by the method of EXAMPLE 1 (Coded as QSYQ) was administrated half an hour after meal, 3 times per day.
There were 19 questions in the Seattle angina questionnaire (SAQ), including 5 parts: physical limitation (PL), anginal stability (AS), anginal frequency (AF), treatment satisfaction (TS) and disease perception (DP). After being given necessary explanation by doctors, the questions were answered independently by patients.
They included the overall survival time, angina pectoris score, TCM symptom score and life quality score, where angina pectoris score, TCM symptom score and life quality score were evaluated at randomization, in 1st, 3rd, 6th, 9th, 12th month after treatment and 18th month after follow-up.
All evaluation results of SAQ were described during the period of observation, and Wilcoxon rank sum test was used for inter-group comparison.
The evaluation results in the SAQ were depicted in different observations, and inter-group comparison was tested by Wilcoxon Rank-sum test.

## CC(=O)Oc1ccccc1C(=O)O [Control group, aspirine]
Follow-up
  SAQ Question 1-4: Not limited, percent of patients: (53.63%)
  SAQ Question 1-4: Other reasons, number of patients: 10
  SAQ Question 1-4: Other reasons, percent of patients: (0.71%)
  SAQ Question 1-4: Severely limited, number of patients: 5
  SAQ Question 1-4: Severely limited, percent of patients: (0.36%)
  SAQ Question 1-4: Slightly limited, number of patients: 428
  SAQ Question 1-4: Slightly limited, percent of patients: (30.44%)
  SAQ Question 1-5: Mildly limited, number of patients: 181
  SAQ Question 1-5: Mildly limited, percent of patients: (12.87%)
  SAQ Question 1-5: Moderately limited, number of patients: 57
  SAQ Question 1-5: Moderately limited, percent of patients: (4.05%)
  SAQ Question 1-5: Not limited, number of patients: 765
  SAQ Question 1-5: Not limited, percent of patients: (54.41%)
  SAQ Question 1-5: Other reasons, number of patients: 8
  SAQ Question 1-5: Other reasons, percent of patients: (0.57%)
  SAQ Question 1-5: Severely limited, number of patients: 9
  SAQ Question 1-5: Severely limited, percent of patients: (0.64%)
  SAQ Question 1-5: Slightly limited, number of patients: 386
  SAQ Question 1-5: Slightly limited, percent of patients: (27.45%)
  SAQ Question 1-9: Mildly limited, % of cases: (20.25%)
  SAQ Question 1-9: Mildly limited, cases: 276
  SAQ Question 1-9: Moderately limited, % of cases: (21.13%)
  SAQ Question 1-9: Moderately limited, cases: 288
  SAQ Question 1-9: Not limited, % of cases: (6.09%)
  SAQ Question 1-9: Not limited, cases: 83
  SAQ Question 1-9: Other reasons, % of cases: (4.77%)
  SAQ Question 1-9: Other reasons, cases: 65
  SAQ Question 1-9: Severely-limited, % of cases: (27.29%)
  SAQ Question 1-9: Severely-limited, cases: 372
  SAQ Question 1-9: Slightly limited, % of cases: (20.47%)
  SAQ Question 1-9: Slightly limited, cases: 279
1 month after treatment
  8th question: Dissatisfied, patients (%): (0.13%)
  8th question: Highly satisfied, patients (%): (17.41%)
  8th question: Mostly dissatisfied, patients (%): (4.23%)
  8th question: Mostly satisfied, patients (%): (48.99%)
  8th question: Partly satisfied, patients (%): (29.23%)
  9th question: Few, patients (%): (25.86%)
  9th question: Mild, patients (%): (35.93%)
  9th question: Moderate, patients (%): (18.94%)
  9th question: Severe, patients (%): (2.01%)
  9th question: Uneffective, patients (%): (17.26%)
  10th question: Dissatisfied, patients (%): (22.24%)
  10th question: Highly satisfied, patients (%): (4.23%)
  10th question: Mostly dissatisfied, patients (%): (23.12%)
  10th question: Mostly satisfied, patients (%): (19.83%)
  10th question: Partly satisfied, patients (%): (30.58%)
  11th question: Continuously worried, patients (%): (6.04%)
  11th question: No worried, patients (%): (4.84%)
  11th question: Occasionally worried, patients (%): (41.24%)
  11th question: Often worried, patients (%): (21.76%)
  11th question: Seldom worried, patients (%): (26.12%)
  SAQ 4th question, 1-2 times per week: % of patients: (17.41%)
  SAQ 4th question, 1-2 times per week: number of patients: 259
  SAQ 4th question, 1-3 times per day: % of patients: (6.52%)
  SAQ 4th question, 1-3 times per day: number of patients: 97
  SAQ 4th question, <1 time per week: % of patients: (9.07%)
  SAQ 4th question, <1 time per week: number of patients: 135
  SAQ 4th question, Not used: % of patients: (53.23%)
  SAQ 4th question, Not used: number of patients: 792
  SAQ 4th question, ≧3 times per week: % of patients: (13.71%)
  SAQ 4th question, ≧3 times per week: number of patients: 204
  SAQ 4th question, ≧4 times per day: % of patients: (0.07%)
  SAQ 4th question, ≧4 times per day: number of patients: 1
  SAQ 5th question, Few: % of patients: (21.67%)
  SAQ 5th question, Few: number of patients: 322
  SAQ 5th question, Mild: % of patients: (28.94%)
  SAQ 5th question, Mild: number of patients: 430
  SAQ 5th question, Moderate: % of patients: (18.24%)
  SAQ 5th question, Moderate: number of patients: 271
  SAQ 5th question, None: % of patients: (25.44%)
  SAQ 5th question, None: number of patients: 378
  SAQ 5th question, Not medicated by doctors: % of patients: (3.57%)
  SAQ 5th question, Not medicated by doctors: number of patients: 53
  SAQ 5th question, Severe: % of patients: (2.15%)
  SAQ 5th question, Severe: number of patients: 32
  SAQ 6th question, Dissatisfied: % of patients: (0.20%)
  SAQ 6th question, Dissatisfied: number of patients: 3
  SAQ 6th question, Highly consent: % of patients: (17.86%)
  SAQ 6th question, Highly consent: number of patients: 266
  SAQ 6th question, Mostly dissatisfied: % of patients: (4.37%)
  SAQ 6th question, Mostly dissatisfied: number of patients: 65
  SAQ 6th question, Mostly satisfied: % of patients: (47.88%)
  SAQ 6th question, Mostly satisfied: number of patients: 713
  SAQ 6th question, Partly satisfied: % of patients: (29.68%)
  SAQ 6th question, Partly satisfied: number of patients: 442
  SAQ 7th question, Dissatisfied: % of patients: (0.13%)
  SAQ 7th question, Dissatisfied: number of patients: 2
  SAQ 7th question, Highly satisfied: % of patients: (23.40%)
  SAQ 7th question, Highly satisfied: number of patients: 348
  SAQ 7th question, Mostly dissatisfied: % of patients: (3.36%)
  SAQ 7th question, Mostly dissatisfied: number of patients: 50
  SAQ 7th question, Mostly satisfied: % of patients: (48.69%)
  SAQ 7th question, Mostly satisfied: number of patients: 724
  SAQ 7th question, Partly satisfied: % of patients: (24.41%)
  SAQ 7th question, Partly satisfied: number of patients: 363
  SAQ Question 1-1 Mildly limited, number of patients: 21
  SAQ Question 1-1 Mildly limited, percent of patients: (1.41%)
  SAQ Question 1-1 Moderately limited, number of patients: 9
  SAQ Question 1-1 Moderately limited, percent of patients: (0.60%)
  SAQ Question 1-1 Not limited, number of patients: 1375
  SAQ Question 1-1 Not limited, percent of patients: (92.41%)
  SAQ Question 1-1 Other reasons, number of patients: 2
  SAQ Question 1-1 Other reasons, percent of patients: (0.13%)
  SAQ Question 1-1 Severely limited, number of patients: 1
  SAQ Question 1-1 Severely limited, percent of patients: (0.07%)
  SAQ Question 1-1 Slightly limited, number of patients: 80
  SAQ Question 1-1 Slightly limited, percent of patients: (5.38%)
  SAQ Question 1-2 Mildly limited, number of patients: 30
  SAQ Question 1-2 Mildly limited, percent of patients: (2.02%)
  SAQ Question 1-2 Moderately limited, number of patients: 10
  SAQ Question 1-2 Moderately limited, percent of patients: (0.67%)
  SAQ Question 1-2 Not limited, number of patients: 1345
  SAQ Question 1-2 Not limited, percent of patients: (90.39%)
  SAQ Question 1-2 Other reasons, number of patients: 4
  SAQ Question 1-2 Other reasons, percent of patients: (0.27%)
  SAQ Question 1-2 Severely limited, number of patients: 0
  SAQ Question 1-2 Severely limited, percent of patients: (0.00%)
  SAQ Question 1-2 Slightly limited, number of patients: 99
  SAQ Question 1-2 Slightly limited, percent of patients: (6.65%)
  SAQ Question 1-6: Mildly limited, patients (%): (18.24%)
  SAQ Question 1-6: Moderately limited, patients (%): (15.53%)
  SAQ Question 1-6: Not limited, patients (%): (29.08%)
  SAQ Question 1-6: Other reasons, patients (%): (0.88%)
  SAQ Question 1-6: Severely limited, patients (%): (4.75%)
  SAQ Question 1-6: Slightly limited, patients (%): (31.53%)
  SAQ Question 1-7: Mildly limited, patients (%): (23.85%)
  SAQ Question 1-7: Moderately limited, patients (%): (17.55%)
  SAQ Question 1-7: Not limited, patients (%): (12.34%)
  SAQ Question 1-7: Other reasons, patients (%): (3.08%)
  SAQ Question 1-7: Severely limited, patients (%): (17.75%)
  SAQ Question 1-7: Slightly limited, patients (%): (25.43%)
  SAQ Question 1-8: Mildly limited, patients (%): (24.83%)
  SAQ Question 1-8: Moderately limited, patients (%): (20.79%)
  SAQ Question 1-8: Not limited, patients (%): (8.28%)
  SAQ Question 1-8: Other reasons, patients (%): (2.87%)
  SAQ Question 1-8: Severely limited, patients (%): (22.37%)
  SAQ Question 1-8: Slightly limited, patients (%): (20.86%)
3 months after treatment
  8th question: Dissatisfied, patients (%): (0.07%)
  8th question: Highly satisfied, patients (%): (19.43%)
  8th question: Mostly dissatisfied, patients (%): (2.85%)
  8th question: Mostly satisfied, patients (%): (52.31%)
  8th question: Partly satisfied, patients (%): (25.34%)
  9th question: Few, patients (%): (31.56%)
  9th question: Mild, patients (%): (32.99%)
  9th question: Moderate, patients (%): (15.51%)
  9th question: Severe, patients (%): (0.95%)
  9th question: Uneffective, patients (%): (18.98%)
  10th question: Dissatisfied, patients (%): (20.88%)
  10th question: Highly satisfied, patients (%): (4.90%)
  10th question: Mostly dissatisfied, patients (%): (22.38%)
  10th question: Mostly satisfied, patients (%): (23.47%)
  10th question: Partly satisfied, patients (%): (28.37%)
  11th question: Continuously worried, patients (%): (4.62%)
  11th question: No worried, patients (%): (4.76%)
  11th question: Occasionally worried, patients (%): (41.47%)
